{
  "source": "paper doi:10.1101/2022.06.29.498187v1",
  "about": "(bioRxiv, 2022)",
  "key": {"human GHSR1a [1]": {"target": "T1, human GHSR1a (Homo sapiens, UniProt Q92847)", "T1 sequence (Q92847 whole entry)": "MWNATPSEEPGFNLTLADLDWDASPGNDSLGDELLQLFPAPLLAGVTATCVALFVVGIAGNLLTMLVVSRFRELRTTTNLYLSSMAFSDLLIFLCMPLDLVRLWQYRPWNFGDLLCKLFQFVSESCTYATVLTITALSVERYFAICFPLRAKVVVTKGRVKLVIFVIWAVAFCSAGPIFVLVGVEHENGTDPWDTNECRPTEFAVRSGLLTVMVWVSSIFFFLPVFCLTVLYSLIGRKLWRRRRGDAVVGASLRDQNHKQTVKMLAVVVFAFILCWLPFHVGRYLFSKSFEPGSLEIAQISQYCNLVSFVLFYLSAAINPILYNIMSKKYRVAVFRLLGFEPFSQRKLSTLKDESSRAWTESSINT", "assay": "Receptor activation assay, CRE-controlled NanoLuc reporter", "assay_type": "cell-based"}, "human GHSR1a [2]": {"target": "T1, human GHSR1a", "assay": "NanoBiT-based homogenous binding assay", "conditions": "ghrelin-SmBiT and LEAP2-SmBiT tracers"}},
  "data": [
    {"smiles": "CCCCCSC[C@H](NC(=O)[C@H](CO)NC(=O)CN)C(=O)N[C@@H](Cc1ccccc1)C(=O)N[C@@H](CC(C)C)C(=O)N[C@@H](CO)C(=O)N1CCC[C@H]1C(=O)N[C@@H](CCC(=O)O)C(=O)N[C@@H](Cc1c[nH]cn1)C(=O)N[C@@H](CCC(N)=O)C(=O)N[C@@H](CCCNC(=N)N)C(=O)N[C@H](C(=O)N[C@@H](CCC(N)=O)C(=O)N[C@@H](CCC(N)=O)C(=O)N[C@@H](CCCNC(=N)N)C(=O)N[C@@H](CCCCN)C(=O)N[C@@H](CCC(=O)O)C(=O)N[C@@H](CO)C(=O)N[C@@H](CCCCN)C(=O)N[C@@H](CCCCN)C(=O)N1CCC[C@H]1C(=O)N1CCC[C@H]1C(=O)N[C@@H](C)C(=O)N[C@@H](CCCCN)C(=O)N[C@@H](CC(C)C)C(=O)N[C@@H](CCC(N)=O)C(=O)N1CCC[C@H]1C(=O)N[C@@H](CCCNC(=N)N)C(=O)O)C(C)C", "note": "[analog 1]", "values": [
      {"measurement": "fold lower receptor activation potency compared to native human ghrelin", "setting": "human GHSR1a [1]", "result": "~7", "unit": "fold"},
      {"measurement": "fold lower receptor binding activity compared to native human ghrelin", "setting": "human GHSR1a [2]", "result": "~15", "unit": "fold"}
    ]}
  ]
}
